Data: patent US20230227466A1, “SUBSTITUTED THIENOPYRIMIDINES THAT INTERACT WITH THE RAS SUPERFAMILY FOR THE TREATMENT OF CANCERS, INFLAMMATORY DISEASES, RASOPATHIES, AND FIBROTIC DISEASE” (SHY Therapeutics, LLC, priority 2020, published 2023)

Key:
[1] = system: ERK1/2 phosphorylation in Panc-1 cells; test: Western ERK1/2 cell-based phosphorylation assay; parameters: species or system human; conditions: at 10 μM, values in brackets < > are activation %, not inhibition
Experimental: Cell lines: Human tumor-derived pancreatic cancer cell line Panc-1 was purchased from American Type Culture Collection and grown in complete DMEM-High Glucose, supplemented with penicillin (100 U/mL), streptomycin (100 μg/mL), and 10% heat-inactivated FBS at 37° C. in a humidified incubator with 5% CO2.
(§1) Method: Cells were plated at 350000 cells/well density in a 12-well plate, allowed 3 hours to adhere to the plate, then starved in the appropriate medium in the presence of 0.5% FBS overnight. The small molecules to be tested were added to the cells in the final concentration of 10 μM in the presence of 0.3% DMSO for 6 hours incubation at 37° C. For IC50 value determination, serial dilutions of compounds were added to cells under the same conditions. Next, cells were stimulated with 1.5 ng/ml EGF for 15 minutes then cells were lysed with lysis buffer containing 1% Triton X-100, EDTA, and Halt™ Protease & Phosphatase Inhibitor Cocktail (Thermo Scientific). Protein concentration was assessed by BCA protein assay (Thermo Scientific). Phosphorylation level of ERK1/2 was determined by western blot.
(§2) Western blot protocol: Equal amounts of protein (15-50 μg) were separated by SDS-PAGE and transferred to nitrocellulose membranes (Invitrogen by Thermo Fisher Scientific). The membrane was stained with Ponceau S Stain (Boston BioProducts) to verify uniform protein loading. Membranes were blocked with 10% milk and phosphorylation levels of ERK1/2 were assessed by incubating overnight at 4° C. with anti-phospho-p44/42 (Thr202/Tyr204) antibody (Cell Signaling) followed by HRP-conjugated secondary antibody (Jackson Immunoresearch, West Grove, Pa.). Bands were incubated in Amersham ECL Prime Western Blotting Detection Reagent (GE Healthcare) and visualized using the ChemiDoc MP imaging system (Bio-Rad). Protocol for Western AKT cell-based phosphorylation assay

[2] = system: Akt phosphorylation in Panc-1 cells; test: Western AKT cell-based phosphorylation assay; parameters: species or system human; conditions: at 10 μM, values in brackets < > are activation %, not inhibition
Experimental: Human Tumor-Derived Pancreatic Cancer Cell Line Panc-1 was Purchased from
American Type Culture Collection and grown in complete DMEM-High Glucose supplemented with penicillin (100 U/mL), streptomycin (100 μg/mL), and 10% heat-inactivated FBS at 37° C. in a humidified incubator with 5% CO2.
as §1, with “C.” for “C. For IC50 value determination, serial dilutions of compounds were added to cells under the same conditions.”, “Akt” for “ERK1/2”
as §2, with “Akt” for “ERK1/2”, “anti-phospho-Akt (Ser473)” for “anti-phospho-p44/42 (Thr202/Tyr204)”, “(Bio-Rad).” for “(Bio-Rad). Protocol for Western AKT cell-based phosphorylation assay”

| SMILES | % inh of ERK1/2 phosphorylation in PANC-1 [1] | % inh of AKT phosphorylation in PANC-1 [2] |
| --- | --- | --- |
| CO[C@H]1CC[C@@H](Nc2nc(-c3nccn3C)nc3sc(-c4ccn(C(C)C)n4)c(-c4ccccc4)c23)C1 [Compound 5, 6-(1-Isopropyl-1H-pyrazol-3-yl)-N-((1R,3S)-3-methoxycyclopentyl)-2-(1-methyl-1H-imidazol-2-yl)-5-phenylthieno[2,3-d]pyrimidin-4-amine] | D (76-100% inhibition) | D (76-100% inhibition) |
| CO[C@H]1CCCN(c2nc(-c3nccn3C)nc3sc(-c4ccn(C(C)C)n4)c(C)c23)C1 [Compound 49, (S)-6-(1-Isopropyl-1H-pyrazol-3-yl)-4-(3-methoxypiperidin-1-yl)-5-methyl-2-(1-methyl-1H-imidazol-2-yl)thieno[2,3-d]pyrimidine] | D (76-100% inhibition) | D (76-100% inhibition) |
| COCC1COCCN1c1nc(-c2nccn2C)nc2sc(-c3ccn(C(C)C)n3)c(C)c12 (racemic) [Compound 41, rac-4-(6-(1-Isopropyl-1H-pyrazol-3-yl)-5-methyl-2-(1-methyl-1H-imidazol-2-yl)thieno[2,3-d]pyrimidin-4-yl)-3-(methoxymethyl)morpholine] | 0 (0% inhibition) | 0 (0% inhibition) |
| COCC1CCN(c2nc(-c3nccn3C)nc3sc(-c4ccn(C(C)C)n4)c(-c4ccccc4)c23)C1 (racemic) [Compound 76, Rac-6-(1-isopropyl-1H-pyrazol-3-yl)-4-(3-(methoxymethyl)pyrrolidin-1-yl)-2-(1-methyl-1H-imidazol-2-yl)-5-phenylthieno[2,3-d]pyrimidine] | D (76-100% inhibition) | 0 (0% inhibition) |
| CO[C@H]1CN(c2nc(-c3nccn3C)nc3sc(-c4ccn(C(C)C)n4)c(C)c23)C[C@H]1OC [Compound 39, rac-4-((3S,4R)-3,4-Dimethoxypyrrolidin-1-yl)-6-(1-isopropyl-1H-pyrazol-3-yl)-5-methyl-2-(1-methyl-1H-imidazol-2-yl)thieno[2,3-d]pyrimidine] | 0 (0% inhibition) | <B> |
| CO[C@H]1CC[C@@H](Nc2nc(C(=O)N3CCCC3)nc3sccc23)C1 (racemic) [Compound 25, Rac-(4-(((1R,3S)-3-Methoxycyclopentyl)amino)thieno[2,3-d]pyrimidin-2-yl)(pyrrolidin-1-yl)methanone] | 0 (0% inhibition) | 0 (0% inhibition) |
| COc1ccnc(Nc2nc(-c3nccn3C)nc3sc(-c4ccn(C(C)C)n4)c(C)c23)n1 [Compound 68, 6-(1-Isopropyl-1H-pyrazol-3-yl)-N-(4-methoxypyrimidin-2-yl)-5-methyl-2-(1-methyl-1H-imidazol-2-yl)thieno[2,3-d]pyrimidin-4-amine] | C (51-75% inhibition) | <A> |
| CO[C@H]1C[C@@H](Nc2nc(-c3nccn3C)nc3sc(-c4ccn(C(C)C)n4)c(C)c23)C1 [Compound 96, 6-(1-isopropyl-1H-pyrazol-3-yl)-N-((1s,3s)-3-methoxycyclobutyl)-5-methyl-2-(1-methyl-1H-imidazol-2-yl)thieno[2,3-d]pyrimidin-4-amine] | B (26-50% inhibition) | 0 (0% inhibition) |
| Cc1c(-c2ccn(C(C)C)n2)sc2nc(-c3nccn3C)nc(N3CCC(COC(C)C)C3)c12 (racemic) [Compound 62, rac-4-(3-(Isopropoxymethyl)pyrrolidin-1-yl)-6-(1-isopropyl-1H-pyrazol-3-yl)-5-methyl-2-(1-methyl-1H-imidazol-2-yl)thieno[2,3-d]pyrimidine] | D (76-100% inhibition) | B (26-50% inhibition) |
| CCOCCn1ccnc1-c1nc(O)c2scc(-c3ccccn3)c2n1 [Compound 80, 2-(1-(2-Ethoxyethyl)-1H-imidazol-2-yl)-7-(pyridin-2-yl)thieno[3,2-d]pyrimidin-4-ol] | A (1-25% inhibition) | <D> |
| CO[C@H]1CC[C@@H](Nc2nc(-c3nccn3C)nc3sc(-c4cc[nH]n4)c(-c4ccccc4)c23)C1 (racemic) [Example 1, Rac-N-((1R,3S)-3-methoxycyclopentyl)-2-(1-methyl-1H-imidazol-2-yl)-5-phenyl-6-(1H-pyrazol-3-yl)thieno[2,3-d]pyrimidin-4-amine] | 0 (0% inhibition) | 0 (0% inhibition) |
| CO[C@H]1CC[C@@H](Nc2nc(C(=O)N3CCOCC3)nc3sccc23)C1 (racemic) [Compound 12, Rac-(4-(((1R,3S)-3-methoxycyclopentyl)amino)thieno[2,3-d]pyrimidin-2-yl)(morpholino)methanone] | 0 (0% inhibition) | 0 (0% inhibition) |
| Cc1c(-c2ccn(C(C)C)n2)sc2nc(-c3nccn3C)nc(NCCc3cn(C)cn3)c12 [Compound 58, 6-(1-Isopropyl-1H-pyrazol-3-yl)-5-methyl-2-(1-methyl-1H-imidazol-2-yl)-N-(2-(1-methyl-1H-imidazol-4-yl)ethyl)thieno[2,3-d]pyrimidin-4-amine] | A (1-25% inhibition) | 0 (0% inhibition) |
| CO[C@H]1CC[C@@H](Nc2nc(C(=O)Nc3ccccn3)nc3sccc23)C1 (racemic) [Compound 16, rac-4-(((1R,3S)-3-Methoxycyclopentyl)amino)-N-(pyridin-2-yl)thieno[2,3-d]pyrimidine-2-carboxamide] | 0 (0% inhibition) | 0 (0% inhibition) |
| COCCCn1ccnc1-c1nc(O)c2scc(-c3ccccn3)c2n1 [Compound 79, 2-(1-(3-Methoxypropyl)-1H-imidazol-2-yl)-7-(pyridin-2-yl)thieno[3,2-d]pyrimidin-4-ol] | 0 (0% inhibition) | <B> |
| CO[C@H]1C[C@H](Nc2nc(-c3nccn3C)nc3sc(-c4ccn(C(C)C)n4)c(C)c23)C[C@H]1OC [Compound 43, N-((1s,3R,4S)-3,4-Dimethoxycyclopentyl)-6-(1-isopropyl-1H-pyrazol-3-yl)-5-methyl-2-(1-methyl-1H-imidazol-2-yl)thieno[2,3-d]pyrimidin-4-amine] | B (26-50% inhibition) | <D> |
| COC1CCCN(c2nc(-c3nccn3C)nc3sc(-c4ccn(C(C)C)n4)c(C(F)(F)F)c23)C1 (racemic) [Compound 75, Rac-6-(1-Isopropyl-1H-pyrazol-3-yl)-4-(3-methoxypiperidin-1-yl)-2-(1-methyl-1H-imidazol-2-yl)-5-(trifluoromethyl)thieno[2,3-d]pyrimidine] | D (76-100% inhibition) | 0 (0% inhibition) |
| COCCn1ccnc1-c1nc(N[C@@H]2CC[C@H](OC)C2)c2c(-c3ccccc3)c(-c3ccn(C)n3)sc2n1 (racemic) [Compound 6, Rac-N-((1R,3S)-3-methoxycyclopentyl)-2-(1-(2-methoxyethyl)-1H-imidazol-2-yl)-6-(1-methyl-1H-pyrazol-3-yl)-5-phenylthieno[2,3-d]pyrimidin-4-amine] | D (76-100% inhibition) | 0 (0% inhibition) |
| COCCNC(=O)c1nc(O)c2scc(-c3ccccn3)c2n1 [Compound 21, 4-Hydroxy-N-(2-methoxyethyl)-7-(pyridin-2-yl)thieno[3,2-d]pyrimidine-2-carboxamide] | 0 (0% inhibition) | 0 (0% inhibition) |
